Reference: patent US20240239818A1, “COMPOUNDS AND COMPOSITIONS COMPRISING FLUOROPHORES FOR USE IN VISUALIZATION AND PURIFICATION OR MANIPULATION” (priority 2022, published 2024)
Read-outs that look alike come from different tables or passages of the source.

What was measured:
[1] = type: physicochemical
Description: Determination of logD7.4. The log of distribution coefficients at pH 7.4 was determined in octanol-phosphate-buffered saline (PBS) using the miniaturized shake flask setup described previously.^36, 47 Briefly, 150 mL each of octanol and PBS pH 7.4 were stirred vigorously for 12-16 h. The layers were allowed to stand for at least 24 h for phase separation. The separated layers were collected and served as PBS saturated with octanol (PBS*) and octanol saturated with PBS (octanol*). Stock solutions (1 mM or 5 mM) of ligands were prepared in DMSO and diluted in PBS* to obtain 1 μM or 10 μM (3-5 mL) of the standard (std). This standard was used to prepare appropriate dilutions using octanol*, in triplicate, in 2-mL glass vials. The leftover standard was used to determine the standard concentration (Cstd). The vials were vortexed for 1 min and shaken horizontally at 700 rpm for 2 h. The vials were then shaken upright at 150 rpm for 2 h to allow the phases to separate. The octanol* layer was pipetted out, and the PBS* layer was used for further analyses. The concentrations of ligands in the standard and PBS* (CPBS*) were determined via fluorescence measurements of 200 μL of PBS* or std in 96-well plates on the Cytation 5 Multimode Plate Reader (BioTek). For Si-rhodamine containing ligands, 2-20 μL of trifluoroacetic acid was added to each well of the 96-well plate prior to the fluorescence measurements. Reported values are averages of at least two measurements. The logD7.4 was obtained as described previously using equation 2:
[formula] • where Cstd is the standard concentration in PBS, CPBS* is the concentration in PBS after partitioning, r is the dilution factor of the standard solution, VPBS* is the volume of PBS used in the partitioning, and Voctanol* is the volume of octanol used in the partitioning.

[2] = Determination of lactone-zwitterion equilibrium constant (KL-Z); type: physicochemical; details: 1:1 (v/v) dioxane:water
Description: Determination of KL-Z. The lactone-zwitterion equilibrium constant (KL-Z) was calculated as described previously^13, 23, 32, 45 using equation 1: […]
where εdw is the extinction coefficient of the dyes in a 1:1 (v/v) dioxane:water solvent mixture containing 0.01% (v/v) triethylamine; this dioxane water mixture was chosen to give a large range of KL-Z values,^23 and the triethylamine additive ensures the rhodamines are in the net neutral form. The εmax is the maximal extinction coefficient, measured in 0.1% (v/v) trifluoroacetic acid in 2,2,2-trifluoroethanol (TFE).

[3] = target: T1, msGFP-HaloTag® fusion localized to the mitochondrial outer membrane (Rhodococcus rhodochrous, UniProt P0A3G2, A155T/A167V/A172T/A224E/C128F/C176G/D78G/E160K/E257K/H272N/K175M/K195N/L47V/L88M/N227D/S58T/T264A/Y273L/Y87F); test: HEK293T labeling and fluorescence microscopy; type: cell-based; details: live HEK293T cells, nanomolar concentration (100 nM, 1 h)
T1 construct: expressed in transfected cells; host or cells: HEK293T, calcium phosphate transfection
T1 sequence (P0A3G2 other isoform, or with tags, fused parts or gaps with the stated changes): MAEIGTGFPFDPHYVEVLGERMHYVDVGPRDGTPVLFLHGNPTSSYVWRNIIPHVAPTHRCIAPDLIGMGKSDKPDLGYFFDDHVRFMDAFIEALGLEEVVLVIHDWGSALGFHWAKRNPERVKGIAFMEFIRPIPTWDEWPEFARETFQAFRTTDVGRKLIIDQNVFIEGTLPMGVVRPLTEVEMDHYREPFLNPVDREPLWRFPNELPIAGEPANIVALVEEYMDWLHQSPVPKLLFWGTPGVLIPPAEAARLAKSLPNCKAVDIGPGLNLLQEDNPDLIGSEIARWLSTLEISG
Source text: Plasmid construction. HaloTag®, amplified from the pHTC HaloTag® CMV-neo Vector (Promega; G7711) and monomeric-superfolder green fluorescent protein (msGFP; lab stock), was fused to the mitochondrial targeting signal from OMP25,^28 interspacing flexible GS(GSS)4 linkers between each domain by PCR Splicing by Overlap Extension (SOE). This construct was subcloned into hSynapsin promoter bearing a copy of FUGW.^29 FUGW was a gift from David Baltimore (Addgene plasmid #14883; RRID: Addgene_14883).^48 This construct was designated as pF(UG) hSyn HaloTag®-TEV-4×GS-msGFP-mito.
HEK293T cell culture. HEK293T cells (ATCC) were passaged before 80% confluency by trypsinization (Corning; 25-053-CI) and trituration. The cell suspension was then plated on glass coverslips (Warner instruments; 64-0734, CS-18R17) coated with poly-D-lysine (Thermofisher; ICN10269491) and cultured in Dulbecco's Modified Eagle Medium (DMEM; ThermoFisher; 11965-118) supplemented with 10% v/v fetal bovine serum (FBS, Atlanta Biological) and penicillin/streptomycin (pen/strep; ThermoFisher; MT-30-001-CI) at 37° C. in a humidified 5% v/v CO2 environment following ATCC guidelines. These HEK293T cells were tested for mycoplasma contamination using the Universal Mycoplasma Detection Kit (ATCC; 30-1012K) and validated using Short Tandem Repeat profiling by ATCC (ATCC; 135-XV) within the previous year.
HEK293T labeling and fluorescence microscopy. […] For pulse-chase experiments, HEK293T cells were incubated with biotin-HaloTag® ligand (6; #G8281, Promega) at either 100 nM or 10 μM for 1 hour at 37° C. and chased with 100 nM of JANELIA FLUOR® (JF)549-HaloTag® ligand (2HTL). […] For imaging, the coverslips containing HEK293T cells were fixed with 4% paraformaldehyde in PBS at 37° C. for 10 min, washed with PBS (3×), and mounted on glass slides with ProLong Glass Antifade Mountant with NucBlue™ Stain (ThermoFisher; P36981). These cells were imaged using a Zeiss LSM 880 with Airyscan and a plan-apochromatic 63×/1.40 oil objective in Fast Airyscan mode. The same image acquisition settings were used for each trial and condition. Images were then processed with automatic Airyscan deconvolution settings.

[4] = 1:1 (v/v) dioxane-water; parent JF dyes; cited from earlier work
[5] = 1-Photon spectroscopy and quantum yield of HaloTag® ligands; type: physicochemical; details: free ligand, 10 mM HEPES pH 7.3
Description: 1-Photon spectroscopy of HaloTag® ligands and HaloTag® conjugates. […] All measurements were taken at ambient temperature (22 ±2° C.). Absorption spectra were recorded on a Cary Model 100 spectrometer (Agilent) using 1-cm path length 1.0-mL quartz microcuvettes from Starna Cells. Fluorescence spectra were recorded on a Cary Eclipse fluorometer (Varian) using 1-cm path length 3.5-mL quartz cuvettes (Starna Cells). As before,^13, 23, 32, 45 HaloTag® protein was used as a 100 μM solution in 1×TBS. HaloTag® ligands 12-15 (5 μM) were dissolved in 10 mM HEPES, pH 7.3, containing 0.1 mg/mL CHAPS. An aliquot of HaloTag® protein (1.5 equiv) was added, and the resulting mixture was incubated until a consistent absorbance signal was observed (60-120 min). To measure the fold-increase of absorbance upon HaloTag® binding, a “no HaloTag®” control experiment was performed where an equivalent volume of TBS blank was added in place of the protein. Reported values for extinction coefficient (ε) are averages of at least two measurements.
Quantum yield determination. All reported absolute fluorescence quantum yield values (Φf) were measured in the laboratory under identical conditions using a Quantaurus-QY spectrometer (model C11374, Hamamatsu). This instrument uses an integrating sphere to determine photons absorbed and emitted by a sample. Measurements were performed using dilute samples (absorbance<0.1), and self-absorption corrections were performed using the instrument software.^46 Reported values are averages of at least two measurements.

[6] = system: HaloTag®-histone H2B fusion protein; type: cell-based; details: 200 nM, live U2OS cells expressing HaloTag®-H2B, 0-4 h
Description: Dye loading kinetics. Live U2OS.H2B.HaloTag® stable cells were labeled over a time course of 0-4 h with 200 nM of biotin-JF549-HaloTag® ligand (12), biotin-JF608-HaloTag® ligand (13), biotin-JF646-HaloTag® ligand (14), or biotin-JF635-HaloTag® ligand (15) at 37° C. Cells were then washed 3× with dye-free media, fixed with 4% paraformaldehyde in 0.1 M phosphate buffer, pH 7.4 for 15 min at 37° C. Confocal imaging was performed on a Leica SP8 with an HC PL APO CS2 20×/0.75 immersion objective using the tunable white light laser (WLL) to excite dyes at their λabs in constant power mode. Fluorescence was quantified as the average integrated density of background corrected nuclear signals from confocal image stack projections analyzed in FIJI; n=100 nuclear signals per compound.

Compound	logD7.4 ([1]; pH 7.4)	logD7.4 ([1]; octanol-PBS pH 7.4)	KL-Z [2]	KL-Z [4]	also measured
O=C(NCCOCCOCCCCCCCl)c1ccc2c(c1)C1(OC2=O)c2ccc(N3CCC3)cc2Oc2cc(N3CCC3)ccc21 [2HTL, JF549-HaloTag® ligand, reference compound]	0.82	–	5.2	–	labeling of mitochondria-localized HaloTag®-msGFP fusion [3]: labeled the mitochondria-localized HaloTag®-msGFP fusions
C[Si]1(C)c2cc(N3CCC3)ccc2C2(OC(=O)c3ccc(C(=O)NCCOCCOCCCCCCCl)cc32)c2ccc(N3CCC3)cc21 [4HTL, JF646-HaloTag® ligand, reference compound]	–	3.59	0.010	–	labeling of mitochondria-localized HaloTag®-msGFP fusion [3]: labeled the mitochondria in live cells
CC1(C)c2cc(N3CCC3)ccc2C2(OC(=O)c3ccccc32)c2ccc(N3CCC3)cc21 [compound 3, JF608]	–	3.78	–	0.091	–

Further lines, with some results ahead:

logD7.4 ([1]; pH 7.4)	logD7.4 ([1]; octanol-PBS pH 7.4)	Compound	KL-Z [2]	KL-Z [4]	also measured
–	3.55	CC1(C)c2cc(N3CCC3)ccc2C2(OC(=O)c3ccc(C(=O)NCCOCCOCCCCCCCl)cc32)c2ccc(N3CCC3)cc21 [3HTL, reference compound]	0.33	–	–
0.98	–	O=C1OC2(c3ccc(N4CCC4)cc3Oc3cc(N4CCC4)ccc32)c2ccccc21 [compound 2, Janelia Fluor 549]	–	3.5	–
–	3.98	C[Si]1(C)c2cc(N3CCC3)ccc2C2(OC(=O)c3ccccc32)c2ccc(N3CCC3)cc21 [compound 4, JF646]	–	0.0014	–
–	4.1	C[Si]1(C)c2cc(N3CC(F)C3)ccc2C2(OC(=O)c3ccccc32)c2ccc(N3CC(F)C3)cc21 [compound 5, JF635]	–	0.0001	–
2.63	–	CC1(C)C2=CC(=[N+]3CC(C(=O)NCCOCCOCCNC(=O)CCCC[C@@H]4SC[C@@H]5NC(=O)N[C@@H]54)C3)C=CC2=C(c2cc(C(=O)NCCOCCOCCCCCCCl)ccc2C(=O)[O-])c2ccc(N3CCC3)cc21 (some centres unmarked) [compound 13, Biotin-JF608-HaloTag® ligand]	0.17	–	extinction coefficient (ε) [5]: 92,300 M^−1cm^−1; fluorescence quantum yield (Φf) [5]: 0.65; λabs [5]: 610 nm; λem [5]: 634 nm; time to reach saturation of labeling [6]: 4 h
